# Patent US12052991B2, “Substituted pyridinyloxybenzenes and salts thereof and use thereof as herbicidal agents” (Bayer Aktiengesellschaft, priority 2018, dated 2024)
# System: Matricaria inodora (MATIN)
# Test: Herbicidal post-emergence action (Table B7)
# Type: in vivo
# Conditions: 320 g/ha; rated visually after about 3 weeks; 100% = plants have died, 0% = like control plants
# Method in brief: (§1)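 Application rates of 1280 or 320 g/ha were tested post-emergence on one-leaf-stage greenhouse plants in sandy loam, using WP or EC formulations with 0.5% additive at 600 L/ha. Activity was rated visually against untreated plants about 3 weeks later.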
row,SMILES,Post-emergence action against Matricaria inodora (MATIN)
1,Fc1cccc(Oc2ccc(Br)cn2)c1-c1cc(C(F)F)no1 [Example 1-40],100%

# Same assay, conditions: 1280 g/ha; rated visually after about 3 weeks; 100% = plants have died, 0% = like control plants
row,SMILES,Post-emergence action against Matricaria inodora (MATIN)
1,Cc1cccc(Oc2ncc(Cl)cc2F)c1-c1cc(C(F)F)no1 [Example 1-20],100%
2,Fc1cccc(Oc2ccc(Br)cn2)c1-c1cc(C(F)F)no1 [Example 1-40],100%

# System: Matricaria inodora (MATIN)
# Test: Herbicidal pre-emergence action, test C (Table C7)
# Type: in vivo
# Conditions: dosage 320 g/ha; visual scoring after about 3 weeks; 100% = plants have died, 0% = like control plants
# Method in brief: (§2)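 After sowing weed seeds into sandy loam and covering them, the soil surface was treated with aqueous WP or EC preparations containing 0.5% additive, 600 L/ha, at 1280 or 320 g/ha. Scoring was visual, in percent against untreated, at about 3 weeks.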
row,SMILES,Pre-emergence action against Matricaria inodora (MATIN)
1,Cc1cccc(Oc2ncc(Cl)cc2F)c1-c1cc(C(F)F)no1 [Example 1-20],100%
2,Fc1cccc(Oc2ccc(Br)cn2)c1-c1cc(C(F)F)no1 [Example 1-40],100%

# Same assay, conditions: dosage 1280 g/ha; visual scoring after about 3 weeks; 100% = plants have died, 0% = like control plants
row,SMILES,Pre-emergence action against Matricaria inodora (MATIN)
1,Cc1cccc(Oc2ncc(Cl)cc2F)c1-c1cc(C(F)F)no1 [Example 1-20],100%
2,Fc1cccc(Oc2ccc(Br)cn2)c1-c1cc(C(F)F)no1 [Example 1-40],100%

# System: Bassia scoparia (KCHSC)
# Test: Herbicidal post-emergence action (Table B11)
# Type: in vivo
# Conditions: dosage 320 g/ha; visual rating about 3 weeks after treatment; 100% = plants have died, 0% = like control plants
# Method in brief: as §1
row,SMILES,Post-emergence action against Bassia scoparia (KCHSC)
1,Cc1cccc(Oc2ncc(Cl)cc2F)c1-c1cc(C(F)F)no1 [Example 1-20],100%
2,Fc1cccc(Oc2ccc(Br)cn2)c1-c1cc(C(F)F)no1 [Example 1-40],100%

# Same assay, conditions: dosage 1280 g/ha; visual rating about 3 weeks after treatment; 100% = plants have died, 0% = like control plants
row,SMILES,Post-emergence action against Bassia scoparia (KCHSC)
1,Cc1cccc(Oc2ncc(Cl)cc2F)c1-c1cc(C(F)F)no1 [Example 1-20],100%
2,Fc1cccc(Oc2ccc(Br)cn2)c1-c1cc(C(F)F)no1 [Example 1-40],100%

# System: Bassia scoparia (KCHSC)
# Test: Herbicidal pre-emergence action, test C (Table C11)
# Type: in vivo
# Conditions: dosage 320 g/ha, visual scoring vs untreated controls
# Method in brief: as §2
row,SMILES,Pre-emergence action against Bassia scoparia (KCHSC)
1,Fc1cccc(Oc2ccc(Br)cn2)c1-c1cc(C(F)F)no1 [Example 1-40],100%

# Same assay, conditions: dosage 1280 g/ha, visual scoring vs untreated controls
row,SMILES,Pre-emergence action against Bassia scoparia (KCHSC)
1,Cc1cccc(Oc2ncc(Cl)cc2F)c1-c1cc(C(F)F)no1 [Example 1-20],90%
2,Fc1cccc(Oc2ccc(Br)cn2)c1-c1cc(C(F)F)no1 [Example 1-40],100%

# System: Digitaria sanguinalis (DIGSA)
# Test: Herbicidal pre-emergence action, test C (Table C10)
# Type: in vivo
# Conditions: dosage 320 g/ha; visual scoring after about 3 weeks; 100% = plants have died, 0% = like control plants
# Method in brief: as §2
row,SMILES,Pre-emergence action against Digitaria sanguinalis (DIGSA)
1,Cc1cccc(Oc2ncc(Cl)cc2F)c1-c1cc(C(F)F)no1 [Example 1-20],90%
2,Fc1cccc(Oc2ccc(Br)cn2)c1-c1cc(C(F)F)no1 [Example 1-40],100%

# Same assay, conditions: dosage 1280 g/ha; visual scoring after about 3 weeks; 100% = plants have died, 0% = like control plants
row,SMILES,Pre-emergence action against Digitaria sanguinalis (DIGSA)
1,Cc1cccc(Oc2ncc(Cl)cc2F)c1-c1cc(C(F)F)no1 [Example 1-20],100%
2,Fc1cccc(Oc2ccc(Br)cn2)c1-c1cc(C(F)F)no1 [Example 1-40],100%

# System: Veronica persica (VERPE)
# Test: Herbicidal pre-emergence action, test C (Table C12)
# Type: in vivo
# Conditions: dosage 320 g/ha, visual scoring vs untreated controls
# Method in brief: as §2
row,SMILES,Pre-emergence action against Veronica persica (VERPE)
1,Cc1cccc(Oc2ncc(Cl)cc2F)c1-c1cc(C(F)F)no1 [Example 1-20],100%
2,Fc1cccc(Oc2ccc(Br)cn2)c1-c1cc(C(F)F)no1 [Example 1-40],100%

# Same assay, conditions: dosage 1280 g/ha, visual scoring vs untreated controls
row,SMILES,Pre-emergence action against Veronica persica (VERPE)
1,Cc1cccc(Oc2ncc(Cl)cc2F)c1-c1cc(C(F)F)no1 [Example 1-20],100%
2,Fc1cccc(Oc2ccc(Br)cn2)c1-c1cc(C(F)F)no1 [Example 1-40],100%

# System: Digitaria sanguinalis (DIGSA)
# Test: Herbicidal post-emergence action (Table B10)
# Type: in vivo
# Conditions: dosage 320 g/ha; visual rating about 3 weeks after treatment; 100% = plants have died, 0% = like control plants
# Method in brief: as §1
row,SMILES,Post-emergence action against Digitaria sanguinalis (DIGSA)
1,Cc1cccc(Oc2ncc(Cl)cc2F)c1-c1cc(C(F)F)no1 [Example 1-20],100%
2,Fc1cccc(Oc2ccc(Br)cn2)c1-c1cc(C(F)F)no1 [Example 1-40],100%

# Same assay, conditions: dosage 1280 g/ha; visual rating about 3 weeks after treatment; 100% = plants have died, 0% = like control plants
row,SMILES,Post-emergence action against Digitaria sanguinalis (DIGSA)
1,Cc1cccc(Oc2ncc(Cl)cc2F)c1-c1cc(C(F)F)no1 [Example 1-20],100%
2,Fc1cccc(Oc2ccc(Br)cn2)c1-c1cc(C(F)F)no1 [Example 1-40],100%

# System: Veronica persica (VERPE)
# Test: Herbicidal post-emergence action (Table B12)
# Type: in vivo
# Conditions: dosage 320 g/ha; visual rating about 3 weeks after treatment; 100% = plants have died, 0% = like control plants
# Method in brief: as §1
row,SMILES,Post-emergence action against Veronica persica (VERPE)
1,Cc1cccc(Oc2ncc(Cl)cc2F)c1-c1cc(C(F)F)no1 [Example 1-20],100%
2,Fc1cccc(Oc2ccc(Br)cn2)c1-c1cc(C(F)F)no1 [Example 1-40],100%

# Same assay, conditions: dosage 1280 g/ha; visual rating about 3 weeks after treatment; 100% = plants have died, 0% = like control plants
row,SMILES,Post-emergence action against Veronica persica (VERPE)
1,Cc1cccc(Oc2ncc(Cl)cc2F)c1-c1cc(C(F)F)no1 [Example 1-20],100%
2,Fc1cccc(Oc2ccc(Br)cn2)c1-c1cc(C(F)F)no1 [Example 1-40],100%

# System: Alopecurus myosuroides (ALOMY)
# Test: Herbicidal pre-emergence action, test C (Table C9)
# Type: in vivo
# Conditions: dosage 320 g/ha; visual scoring after about 3 weeks; 100% = plants have died, 0% = like control plants
# Method in brief: as §2
row,SMILES,Pre-emergence action against Alopecurus myosuroides (ALOMY)
1,Cc1cccc(Oc2ncc(Cl)cc2F)c1-c1cc(C(F)F)no1 [Example 1-20],90%
2,Fc1cccc(Oc2ccc(Br)cn2)c1-c1cc(C(F)F)no1 [Example 1-40],100%

# Same assay, conditions: dosage 1280 g/ha; visual scoring after about 3 weeks; 100% = plants have died, 0% = like control plants
row,SMILES,Pre-emergence action against Alopecurus myosuroides (ALOMY)
1,Cc1cccc(Oc2ncc(Cl)cc2F)c1-c1cc(C(F)F)no1 [Example 1-20],100%
2,Fc1cccc(Oc2ccc(Br)cn2)c1-c1cc(C(F)F)no1 [Example 1-40],100%

# System: Alopecurus myosuroides (ALOMY)
# Test: Herbicidal post-emergence action (Table B9)
# Type: in vivo
# Conditions: 320 g/ha; rated visually after about 3 weeks; 100% = plants have died, 0% = like control plants
# Method in brief: as §1
row,SMILES,Post-emergence action against Alopecurus myosuroides (ALOMY)
1,Cc1cccc(Oc2ncc(Cl)cc2F)c1-c1cc(C(F)F)no1 [Example 1-20],100%
2,Fc1cccc(Oc2ccc(Br)cn2)c1-c1cc(C(F)F)no1 [Example 1-40],100%

# Same assay, conditions: 1280 g/ha; rated visually after about 3 weeks; 100% = plants have died, 0% = like control plants
row,SMILES,Post-emergence action against Alopecurus myosuroides (ALOMY)
1,Cc1cccc(Oc2ncc(Cl)cc2F)c1-c1cc(C(F)F)no1 [Example 1-20],100%
2,Fc1cccc(Oc2ccc(Br)cn2)c1-c1cc(C(F)F)no1 [Example 1-40],100%
